# Reference: patent publication US8642629B2, “Naphthylacetic acids” (Hoffmann-La Roche Inc., priority 2008, dated 2014)
# Biological target: T1, human CRTH2 (Homo sapiens, UniProt Q9Y5Y4)
# T1 construct: expressed in transfected cells; host or cells: CHO-K1
# T1 sequence (Q9Y5Y4 1-395): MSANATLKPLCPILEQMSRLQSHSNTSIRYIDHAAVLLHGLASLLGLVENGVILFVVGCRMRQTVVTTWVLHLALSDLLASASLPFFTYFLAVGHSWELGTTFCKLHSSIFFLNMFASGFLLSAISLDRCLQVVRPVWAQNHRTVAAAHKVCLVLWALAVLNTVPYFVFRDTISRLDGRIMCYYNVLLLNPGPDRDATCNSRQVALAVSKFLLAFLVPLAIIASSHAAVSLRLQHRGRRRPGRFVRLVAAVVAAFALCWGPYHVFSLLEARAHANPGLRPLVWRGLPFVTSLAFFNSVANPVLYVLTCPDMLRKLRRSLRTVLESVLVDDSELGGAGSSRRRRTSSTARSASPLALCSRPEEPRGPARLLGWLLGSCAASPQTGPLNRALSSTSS
# Test: Human CRTH2 Receptor Binding Assay (whole cell, [3H]ramatroban competition)
# Settings: CHO-K1 cells expressing human CRTH2 and G-alpha16; 20 nM [3H]ramatroban; 1 hour, room temperature
# Source text: A whole cell receptor binding assay using [^3H]ramatroban as the competing radioactive ligand was employed to evaluate the compound binding activity to human CRTH2. The radioactive ligand [^3H]ramatroban was synthesized according to Sugimoto et. al. (Eur. J. Pharmacol. 524, 30-37, 2005) to a specific activity of 42 Ci/mmol.
# A cell line stably expressing human CRTH2 was established by transfecting CHO-K1 cells with two mammalian expression vectors that harbored human CRTH2 and G-alpha16 cDNAs, respectively, using FuGene® 6 transfection reagent (from Roche). Stable clones expressing CRTH2 were selected by staining each clone with BM16 (BD Pharmingen™ from BD Biosciences, a division of Becton, Dickinson and Company), which is a rat monoclonal antibody to human CRTH2. The cells were maintained as monolayer cultures in Ham's F-12 medium containing 10% fetal bovine serum, 100 units/mL penicillin, 100 μg/mL streptomycin, 2 mM glutamine, 0.5 mg/mL G418 (geneticin) for CRTH2, and 0.2 mg/mL hygromycin-B (for G-alpha 16). For whole cell receptor binding assay, the monolayer cells were rinsed once with PBS (phosphate buffered saline), dissociated using ethylenediaminetetraacetate (Versene™ EDTA from Lonza Inc.), and suspended in PBS containing 10 mM MgCl2 and 0.06% BSA (bovine serum albumin) at 1.5×10^6 cells/mL.
# The binding reactions (0.2 mL) were performed in 96-well plates at room temperature in PBS containing 1.5×10^5 cells, 10 mM MgCl2, 0.06% BSA, 20 nM [^3H]ramatroban, and test compound at various concentrations. After 1 hour of binding reactions, the cells were harvested on GF™/B filter microplates (microtiter plates with embedded glass fiber from PerkinElmer, Inc.) and washed 5 times with PBS using a Filtermate™ Harvester (a cell harvester that harvests and washes cells from microplates from PerkinElmer, Inc.). The radioactivities bound to the cells were determined using a microplate scintillation counter (TopCount® NXT, from PerkinElmer, Inc.) after adding 50 μL of Microscint™ 20 scintillation fluid (from PerkinElmer, Inc.) to each well of the filter plates. The radioactivity from non-specific binding was determined by replacing compound with 10 μM of 15(R)-15-methyl PGD2 (from Cayman Chemical Company) in the reaction mixtures. The radioactivity bound to the cells in the absence of compound (total binding) was determined by replacing compound with 0.25% of DMSO (dimethyl sulfoxide) in the reaction mixture. Specific binding data were obtained by subtracting the radioactivity of non-specific binding from each binding data.
# The IC50 value is defined as the concentration of the tested compound that is required for 50% inhibition of total specific binding. In order to calculate the IC50 value, the percent inhibition data were determined for 7 concentrations for each compound. The percent inhibition for a compound at each concentration was calculated according to the following formula, [1−(specific binding in the presence of compound)/(total specific binding)]×100. The IC50 value was then obtained by fitting the percent inhibition data to a sigmoidal dose-response (4 parameter logistic) model in the XLfit® software Excel add-in program [from ID Business Solutions Ltd., model 205, where F(x)=(A+(B−A)/(1+((C/x)^D)))].
row,IC50,Structure (SMILES)
1,21.3 nM,"CCS(=O)(=O)c1ccc(Oc2cc(CC(=O)O)c(F)c3ccc(F)cc23)nc1 [Example 4-2, [1,6-difluoro-4-(5-ethanesulfonyl-pyridin-2-yloxy)-naphthalen-2-yl]-acetic acid]"
2,19.1 nM,"CS(=O)(=O)c1cnc(Oc2cc(CC(=O)O)cc3ccc(F)cc23)c(Br)c1 [Example 1-14, [4-(3-bromo-5-methanesulfonyl-pyridin-2-yloxy)-6-fluoro-naphthalen-2-yl]-acetic acid]"
3,2.6 nM,"Cc1c(CC(=O)O)cc2ccc(F)cc2c1Oc1cc(F)c(S(C)(=O)=O)cc1F [Example 2-15, [4-(2,5-difluoro-4-methanesulfonyl-phenoxy)-6-fluoro-3-methyl-naphthalen-2-yl]-acetic acid]"
4,0.9 nM,"Cc1c(CC(=O)O)cc2ccc(F)cc2c1Oc1ccc(S(C)(=O)=O)cn1 [Example 2-32, [6-fluoro-4-(5-methanesulfonyl-pyridin-2-yloxy)-3-methyl-naphthalen-2-yl]-acetic acid]"
5,73.7 nM,"CCS(=O)(=O)c1ccc(Oc2cc(CC(=O)O)cc3ccc(C)cc23)nc1 [Example 13-1, [4-(5-Ethanesulfonyl-pyridin-2-yloxy)-6-methyl-naphthalen-2-yl]-acetic acid]"
6,4.5 nM,"Cc1cc(Oc2c(C)c(CC(=O)O)cc3ccc(Cl)cc23)ccc1S(C)(=O)=O [Example 2-8, [6-chloro-4-(4-methanesulfonyl-3-methyl-phenoxy)-3-methyl-naphthalen-2-yl]-acetic acid]"
7,17.5 nM,CCc1c(CC(=O)O)cc2ccc(F)cc2c1Oc1ccc(S(=O)(=O)CC)cn1 [Example 19-1]
8,1.8 nM,"Cc1c(CC(=O)O)cc2ccc(F)cc2c1Oc1ccc(S(C)(=O)=O)cc1F [Example 2-12, [6-fluoro-4-(2-fluoro-4-methanesulfonyl-phenoxy)-3-methyl-naphthalen-2-yl]-acetic acid]"
9,2.3 nM,"Cc1c(CC(=O)O)cc2ccc(F)cc2c1Oc1ccc(S(C)(=O)=O)cc1 [Example 2-2, [6-fluoro-4-(4-methanesulfonyl-phenoxy)-3-methyl-naphthalen-2-yl]-acetic acid]"
10,91.5 nM,"CCS(=O)(=O)c1ccc(Oc2cc(CC(=O)O)cc3ccc(S(C)(=O)=O)cc23)cc1 [Example 16-1, [4-(4-Ethanesulfonyl-phenoxy)-6-methanesulfonyl-naphthalen-2-yl]-acetic acid]"
11,3.4 nM,"Cc1c(CC(=O)O)cc2ccc(F)cc2c1Oc1ccc(S(C)(=O)=O)c(F)c1 [Example 2-16, [6-fluoro-4-(3-fluoro-4-methanesulfonyl-phenoxy)-3-methyl-naphthalen-2-yl]-acetic acid]"
12,3.1 nM,"Cc1cc(S(C)(=O)=O)cnc1Oc1c(C)c(CC(=O)O)cc2ccc(F)cc12 [Example 2-34, [6-fluoro-4-(5-methanesulfonyl-3-methyl-pyridin-2-yloxy)-3-methyl-naphthalen-2-yl]-acetic acid]"
13,5.4 nM,"CCS(=O)(=O)c1ccc(Oc2cc(CC(=O)O)cc3cccc(F)c23)cc1 [Example 1-22, [4-(4-Ethanesulfonyl-phenoxy)-5-fluoro-naphthalen-2-yl]-acetic acid]"
14,2.3 nM,"Cc1c(CC(=O)O)cc2ccc(F)cc2c1Oc1ccc(S(=O)(=O)C2CCCC2)cc1 [Example 2-26, [4-(4-cyclopentanesulfonyl-phenoxy)-6-fluoro-3-methyl-naphthalen-2-yl]-acetic acid]"
15,3.7 nM,"CS(=O)(=O)c1ccc(Oc2cc(CC(=O)O)cc3ccc(F)cc23)nc1 [Example 1-9, [6-fluoro-4-(5-methanesulfonyl-pyridin-2-yloxy)-naphthalen-2-yl]-acetic acid]"
16,2.7 nM,"Cc1cc(Oc2c(C)c(CC(=O)O)cc3ccc(F)cc23)ccc1S(C)(=O)=O [Example 2-6, [6-fluoro-4-(4-methanesulfonyl-3-methyl-phenoxy)-3-methyl-naphthalen-2-yl]-acetic acid]"
17,3.3 nM,"CCS(=O)(=O)c1ccc(Oc2cc(CC(=O)O)cc3ccc(F)cc23)c(C)c1 [Example 1-8, [4-(4-ethanesulfonyl-2-methyl-phenoxy)-6-fluoro-naphthalen-2-yl]-acetic acid]"
18,3.5 nM,"Cc1c(CC(=O)O)cc2ccc(F)cc2c1Oc1ccc(S(=O)(=O)C2CC2)cc1 [Example 2-5, [4-(4-cyclopropanesulfonyl-phenoxy)-6-fluoro-3-methyl-naphthalen-2-yl]-acetic acid]"
19,7.3 nM,"CCS(=O)(=O)c1ccc(Oc2c(C)c(CC(=O)O)cc3ccc(F)cc23)c(C)c1 [Example 2-10, [4-(4-ethanesulfonyl-2-methyl-phenoxy)-6-fluoro-3-methyl-naphthalen-2-yl]-acetic acid]"
20,7.5 nM,"CS(=O)(=O)c1ccc(Sc2cc(CC(=O)O)cc3ccc(F)cc23)cc1 [Example 9-1, [6-fluoro-4-(4-methanesulfonyl-phenylsulfanyl)-naphthalen-2-yl]-acetic acid]"
21,9.3 nM,"O=C(O)Cc1cc(Oc2ccc(S(=O)(=O)C3CC3)cc2)c2cc(F)ccc2c1 [Example 1-5, [4-(4-cyclopropanesulfonyl-phenoxy)-6-fluoro-naphthalen-2-yl]-acetic acid]"
22,7.1 nM,"Cc1cc(S(C)(=O)=O)ccc1Oc1cc(CC(=O)O)cc2ccc(F)cc12 [Example 1-6, [6-fluoro-4-(4-methanesulfonyl-2-methyl-phenoxy)-naphthalen-2-yl]-acetic acid]"
23,6.7 nM,"CCS(=O)(=O)c1ccc(Oc2c(C3CC3)c(CC(=O)O)cc3ccc(F)cc23)nc1 [Example 18-1, [3-Cyclopropyl-4-(5-ethanesulfonyl-pyridin-2-yloxy)-6-fluoro-naphthalen-2-yl]-acetic acid]"
24,18.1 nM,"CCS(=O)(=O)c1ccc(Oc2cc(CC(=O)O)cc3cc(F)ccc23)cc1 [Example 1-20, [4-(4-Ethanesulfonyl-phenoxy)-7-fluoro-naphthalen-2-yl]-acetic acid]"
25,1.8 nM,"Cc1c(CC(=O)O)cc2ccc(F)cc2c1Oc1ccc(S(=O)(=O)N2CC3(COC3)C2)cc1 [Example 2-43, {6-fluoro-3-methyl-4-[4-(2-oxa-6-aza-spiro[3.3]heptane-6-sulfonyl)-phenoxy]-naphthalen-2-yl}-acetic acid]"
26,1.7 nM,"CCS(=O)(=O)c1ccc(Oc2c(C)c(CC(=O)O)cc3ccc(F)cc23)c(C#N)c1 [Example 2-18, [4-(2-cyano-4-ethanesulfonyl-phenoxy)-6-fluoro-3-methyl-naphthalen-2-yl]-acetic acid]"
27,2.8 nM,"Cc1ccc(S(=O)(=O)c2ccc(Oc3c(C)c(CC(=O)O)cc4ccc(F)cc34)cc2)cc1 [Example 2-29, {6-fluoro-3-methyl-4-[4-(toluene-4-sulfonyl)-phenoxy]-naphthalen-2-yl}-acetic acid]"
28,3.3 nM,"CCS(=O)(=O)c1ccc(Oc2cc(CC(=O)O)cc3ccc(C#N)cc23)nc1 [Example 14-1, [6-Cyano-4-(5-ethanesulfonyl-pyridin-2-yloxy)-naphthalen-2-yl]-acetic acid]"
29,2.9 nM,"CCS(=O)(=O)c1cnc(Oc2c(C)c(CC(=O)O)cc3ccc(F)cc23)c(C)c1 [Example 2-35, [4-(5-ethanesulfonyl-3-methyl-pyridin-2-yloxy)-6-fluoro-3-methyl-naphthalen-2-yl]-acetic acid]"
30,2.4 nM,"CCS(=O)(=O)c1cc(Cl)c(Oc2c(C)c(CC(=O)O)cc3ccc(F)cc23)cc1F [Example 2-25, [4-(2-chloro-4-ethanesulfonyl-5-fluoro-phenoxy)-6-fluoro-3-methyl-naphthalen-2-yl]-acetic acid]"
